From ChEMBL document CHEMBL3044903, “Synthesis and Herbicidal Activity of Novel 3-Alkoxycarbonyl-3-aryl-2,3-dihydro-2-oxo-1H-pyrrole Derivatives” (J Pestic Sci, 2004)

How the values were obtained:
Echinochloa oryzicola [1] = experiment: Post-emergence herbicide activity against Echinochloa oryzicola under greenhouse condition at 1 g a.i/a treated at one-leaf stage measured after 3 weeks; format: functional
Echinochloa oryzicola [2] = experiment: Pre-emergence herbicide activity against Echinochloa oryzicola under greenhouse condition at 1 g a.i/a measured after 3 weeks; format: functional
[3] = system: Schoenoplectiella juncoides; experiment: Pre-emergence herbicide activity against Schoenoplectiella juncoides under greenhouse condition at 1 g a.i/a measured after 3 weeks; format: functional
Echinochloa oryzicola [4] = experiment: Post-emergence herbicide activity against Echinochloa oryzicola under greenhouse condition at 10 g a.i/a treated at one-leaf stage measured after 3 weeks; format: functional
[5] = system: Schoenoplectiella juncoides; experiment: Post-emergence herbicide activity against Schoenoplectiella juncoides under greenhouse condition at 10 g a.i/a treated at one-leaf stage measured after 3 weeks; format: functional
Echinochloa oryzicola [6] = experiment: Pre-emergence herbicide activity against Echinochloa oryzicola under greenhouse condition at 10 g a.i/a measured after 3 weeks; format: functional
[7] = system: Schoenoplectiella juncoides; experiment: Pre-emergence herbicide activity against Schoenoplectiella juncoides under greenhouse condition at 10 g a.i/a measured after 3 weeks; format: functional
[8] = system: Schoenoplectiella juncoides; experiment: Post-emergence herbicide activity against Schoenoplectiella juncoides under greenhouse condition at 1 g a.i/a treated at one-leaf stage measured after 3 weeks; format: functional
Echinochloa oryzicola [9] = experiment: Herbicidal activity against Echinochloa oryzicola at 2.5 g a.i/a treated at 2.5 leaf stage measured after 3 weeks; format: functional
Echinochloa oryzicola [10] = experiment: Herbicidal activity against Echinochloa oryzicola at 5.0 g a.i/a treated at 2.5 leaf stage measured after 3 weeks; format: functional
Oryza sativa [11] = experiment: Phytotoxicity against two-leaf stage Oryza sativa cv. Nipponbare (rice) planted zero cm depth at 5.0 g a.i/a measured after 3 weeks; format: organism-based; conditions: in vivo, 504 h
Echinochloa oryzicola [12] = experiment: Herbicidal activity against Echinochloa oryzicola at 5.0 g a.i/a treated at 1.5 leaf stage measured after 3 weeks; format: functional
Oryza sativa [13] = experiment: Phytotoxicity against two-leaf stage Oryza sativa cv. Nipponbare (rice) planted zero cm depth at 2.5 g a.i/a measured after 3 weeks; format: organism-based; conditions: in vivo, other, 504 h
Oryza sativa [14] = experiment: Phytotoxicity against two-leaf stage Oryza sativa cv. Nipponbare (rice) planted 2 cm depth at 1 g a.i/a measured after 3 weeks; format: organism-based; conditions: in vivo, other, 504 h
Oryza sativa [15] = experiment: Phytotoxicity against two-leaf stage Oryza sativa cv. Nipponbare (rice) planted zero cm depth at 1 g a.i/a measured after 3 weeks; format: organism-based; conditions: in vivo, other, 504 h
Oryza sativa [16] = experiment: Phytotoxicity against two-leaf stage Oryza sativa cv. Nipponbare (rice) planted 2 cm depth at 5.0 g a.i/a measured after 3 weeks; format: organism-based; conditions: in vivo, 504 h
Echinochloa oryzicola [17] = experiment: Herbicidal activity against Echinochloa oryzicola at 1 g a.i/a treated at 1.5 leaf stage measured after 3 weeks; format: functional
Echinochloa oryzicola [18] = experiment: Herbicidal activity against Echinochloa oryzicola at 2.5 g a.i/a treated at 1.5 leaf stage measured after 3 weeks; format: functional
Oryza sativa [19] = experiment: Phytotoxicity against two-leaf stage Oryza sativa cv. Nipponbare (rice) planted 2 cm depth at 2.5 g a.i/a measured after 3 weeks; format: organism-based; conditions: in vivo, 504 h
Echinochloa oryzicola [20] = experiment: Herbicidal activity against Echinochloa oryzicola at 1 g a.i/a treated at 2.5 leaf stage measured after 3 weeks; format: functional
Oryza sativa [21] = experiment: Phytotoxicity against two-leaf stage Oryza sativa cv. Nipponbare (rice) planted 2 cm depth assessed as crop injury at 2 g a.i/a followed by leaching of irrigation water for 3 days measured after 3 weeks post-treatment; format: organism-based; conditions: in vivo, other, 504 h
Oryza sativa [22] = experiment: Phytotoxicity against two-leaf stage Oryza sativa cv. Nipponbare (rice) planted 2 cm depth assessed as crop injury at 4 g a.i/a followed by leaching of irrigation water for 3 days measured after 3 weeks post-treatment; format: organism-based; conditions: in vivo, other, 504 h

| Structure (SMILES) | Activity (Echinochloa oryzicola [1]) [%] | Activity (Echinochloa oryzicola [2]) [%] | Activity [3] [%] | Activity (Echinochloa oryzicola [4]) [%] | Activity [5] [%] | Activity (Echinochloa oryzicola [6]) [%] | Activity [7] [%] | Activity [8] [%] | Activity (Echinochloa oryzicola [9]) [%] | Activity (Echinochloa oryzicola [10]) [%] | Activity (Oryza sativa [11]) [%] | Activity (Echinochloa oryzicola [12]) [%] | Activity (Oryza sativa [13]) [%] | Activity (Oryza sativa [16]) [%] | Activity (Echinochloa oryzicola [17]) [%] | Activity (Echinochloa oryzicola [18]) [%] | Activity (Oryza sativa [19]) [%] | Activity (Echinochloa oryzicola [20]) [%] | further results |
| --- | --- | --- | --- | --- | --- | --- | --- | --- | --- | --- | --- | --- | --- | --- | --- | --- | --- | --- | --- |
| COC(=O)C1(c2ccccc2)C(=O)N(C(C)(C)c2cc(Cl)cc(Cl)c2)C=C1C=O (stereo not drawn) | 0 | 100 | 50.1 | 87.6 | 87.6 | 100 | 100 | 50.1 | – | – | – | – | – | – | – | – | – | – | – |
| COC(=O)C1(c2ccccc2)C(=O)N(C(C)(C)c2cc(Cl)cc(Cl)c2)C=C1CO (stereo not drawn) | 87.6 | 100 | 87.6 | 100 | 87.6 | 100 | 100 | 87.6 | 75 | 99 | 65 | 99 | 60 | 0 | 97 | 99 | 0 | 30 | Activity (Oryza sativa [14]): 0%; Activity (Oryza sativa [15]): 0% |
| C=C1CN(C(C)(C)c2cc(Cl)cc(Cl)c2)C(=O)C1(C(=O)OC)c1ccccc1F (stereo not drawn) | – | – | – | – | – | – | – | – | 95 | 95 | 98 | 99 | 80 | 0 | 99 | 99 | 0 | 65 | – |
| COC(=O)C1(c2ccccc2)C(=O)N(C(C)(C)c2cc(F)cc(F)c2)C=C1C (stereo not drawn) | 50.1 | 75.1 | 100 | 100 | 87.6 | 100 | 100 | 87.6 | – | – | – | – | – | – | – | – | – | – | – |
| COC(=O)C1(c2ccccc2)C(=O)N(C(C)(C)c2cc(Cl)cc(Cl)c2)C=C1/C=N/O (stereo not drawn) | 0 | 0 | 0 | 0.1 | 0.1 | 100 | 75.1 | 0 | – | – | – | – | – | – | – | – | – | – | – |
| COC(=O)C1(c2ccccc2F)C(=O)N(C(C)(C)c2cc(Cl)cc(Cl)c2)C=C1C (stereo not drawn) | 100 | 100 | 0.1 | 100 | 87.6 | 100 | 100 | 0.1 | 90 | 100 | 30 | 100 | 5 | 0 | 99 | 99 | 0 | 80 | Activity (Oryza sativa [21]): 0%; Activity (Oryza sativa [14]): 0%; Activity (Oryza sativa [15]): 0%; Activity (Oryza sativa [22]): 20% |
| COC(=O)C1(c2ccccc2)C(=O)N(C(C)(C)c2cc(Cl)cc(Cl)c2)C=C1C(F)F (stereo not drawn) | 0 | 0 | 0 | 87.6 | 50.1 | 100 | 87.6 | 0 | – | – | – | – | – | – | – | – | – | – | – |
| COC(=O)C1(c2ccccc2)C(=O)N(C(C)(C)c2cc(Cl)cc(Cl)c2)C=C1COC(C)=O (stereo not drawn) | 0.1 | 75.1 | 0 | 100 | 87.6 | 100 | 100 | 0.1 | – | – | – | – | – | – | – | – | – | – | – |
| COC(=O)C1(c2ccccc2)C(=O)N(C(C)(C)c2cc(Cl)cc(Cl)c2)C=C1C#N (stereo not drawn) | 0 | 0 | 0 | 0 | 0.1 | 100 | 87.6 | 0 | – | – | – | – | – | – | – | – | – | – | – |
| CC1=C(c2ccccc2)C(=O)N(C(C)(C)c2cc(Cl)cc(Cl)c2)C1 | 87.6 | 100 | 100 | 100 | 87.6 | 100 | 100 | 75.1 | 95 | 98 | 98 | 98 | 90 | 0 | 60 | 95 | 0 | 40 | – |
